Assay results published in the NIST ThermoML archive (doi:10.1016/j.fluid.2018.08.012).
Values joined by “and” are separate entries in the source; they are usually repeats but may differ in a detail not shown here. Equal values may be shown once.

Assay: mn = molality of the nth substance listed, in mol/kg
Conditions: Fluid (supercritical or subcritical phases), Vibrating tube method, m1 = 0.2322

S=C=S [carbon disulfide] + O=C=O
Conditions	mass density
324.09 K, 5020 kPa	107.03 kg/m3
324.09 K, 5037.7 kPa	107.14 kg/m3
324.09 K, 7541 kPa	199.79 kg/m3
324.09 K, 7551.5 kPa	199.54 kg/m3
324.09 K, 10053 kPa	403.53 kg/m3
324.09 K, 10060 kPa	402.21 kg/m3
324.09 K, 12570 kPa	624.02 kg/m3
324.09 K, 12604 kPa	625.07 kg/m3
324.09 K, 15125 kPa	707.48 kg/m3
324.09 K, 15142 kPa	707.56 kg/m3
324.09 K, 17653 kPa	755.16 kg/m3
324.09 K, 17669 kPa	755.21 kg/m3
324.09 K, 20182 kPa	789.28 kg/m3
324.09 K, 20197 kPa	789.34 kg/m3
324.09 K, 22699 kPa	815.92 kg/m3
324.09 K, 22712 kPa	815.94 kg/m3
324.09 K, 25212 kPa	837.95 kg/m3
324.09 K, 25226 kPa	837.97 kg/m3
324.09 K, 27728 kPa	856.85 kg/m3
324.09 K, 27741 kPa	856.86 kg/m3
324.09 K, 30237 kPa	873.42 kg/m3
324.09 K, 30252 kPa	873.43 kg/m3
324.09 K, 32734 kPa	888.17 kg/m3
324.09 K, 32750 kPa	888.17 kg/m3
324.09 K, 35219 kPa	901.47 kg/m3
324.09 K, 35227 kPa	901.44 kg/m3
349.43 K, 5049.6 kPa	92.26 kg/m3
349.43 K, 5059.9 kPa	92.17 kg/m3
349.43 K, 7561.3 kPa	154.46 kg/m3
349.43 K, 7565.2 kPa	155.4 kg/m3
349.43 K, 10072 kPa	237.91 kg/m3
349.43 K, 10079 kPa	236.77 kg/m3
349.43 K, 12659 kPa	351.82 kg/m3
349.43 K, 12682 kPa	350.77 kg/m3
349.43 K, 15194 kPa	474.54 kg/m3
349.43 K, 15210 kPa	471.73 kg/m3
349.43 K, 17724 kPa	568.76 kg/m3
349.43 K, 17738 kPa	565.77 kg/m3
349.43 K, 20245 kPa	633.49 kg/m3
349.43 K, 20260 kPa	630.9 kg/m3
349.43 K, 22769 kPa	680.4 kg/m3
349.43 K, 22783 kPa	678.14 kg/m3
349.43 K, 25280 kPa	716.41 kg/m3
349.43 K, 25300 kPa	714.54 kg/m3
349.43 K, 27790 kPa	745.77 kg/m3
349.43 K, 27805 kPa	744.03 kg/m3
349.43 K, 30301 kPa	770.42 kg/m3
349.43 K, 30313 kPa	768.82 kg/m3
349.43 K, 32807 kPa	791.68 kg/m3
349.43 K, 32815 kPa	790.19 kg/m3
349.43 K, 35294 kPa	808.86 kg/m3
349.43 K, 35296 kPa	810.28 kg/m3
374.78 K, 5066.1 kPa	82.47 kg/m3
374.78 K, 5070.7 kPa	82.42 kg/m3
374.78 K, 7581.5 kPa	133.35 kg/m3
374.78 K, 7585 kPa	133.32 kg/m3
374.78 K, 10086 kPa	191.97 kg/m3
374.78 K, 10088 kPa	191.92 kg/m3
374.78 K, 15040 kPa	335.44 kg/m3
374.78 K, 15062 kPa	335.78 kg/m3
374.78 K, 17568 kPa	413.55 kg/m3
374.78 K, 17587 kPa	413.86 kg/m3
374.78 K, 20094 kPa	484.4 kg/m3
374.78 K, 20111 kPa	484.48 kg/m3
374.78 K, 22615 kPa	543.66 kg/m3
374.78 K, 22634 kPa	543.72 kg/m3
374.78 K, 25138 kPa	592.09 kg/m3
374.78 K, 25153 kPa	592 kg/m3
374.78 K, 27657 kPa	631.81 kg/m3
374.78 K, 27672 kPa	631.68 kg/m3
374.78 K, 30176 kPa	665.02 kg/m3
374.78 K, 30185 kPa	664.78 kg/m3
374.78 K, 32689 kPa	693.03 kg/m3
374.78 K, 32690 kPa	693.42 kg/m3
374.78 K, 35184 kPa	717.46 kg/m3
374.78 K, 35192 kPa	717.92 kg/m3
400.5 K, 5077 kPa	75.32 kg/m3
400.5 K, 5080.3 kPa	74.8 kg/m3
400.5 K, 7594.6 kPa	118.07 kg/m3 and 118.35 kg/m3
400.5 K, 10099 kPa	166.1 kg/m3
400.5 K, 10100 kPa	165.54 kg/m3
400.5 K, 15048 kPa	272.65 kg/m3
400.5 K, 15074 kPa	273.42 kg/m3
400.5 K, 17570 kPa	330.78 kg/m3
400.5 K, 17602 kPa	331.7 kg/m3
400.5 K, 20096 kPa	388.17 kg/m3
400.5 K, 20129 kPa	389.15 kg/m3
400.5 K, 22617 kPa	441.87 kg/m3
400.5 K, 22654 kPa	442.82 kg/m3
400.5 K, 25139 kPa	490.19 kg/m3
400.5 K, 25176 kPa	491.09 kg/m3
400.5 K, 27660 kPa	532.79 kg/m3
400.5 K, 27688 kPa	533.55 kg/m3
400.5 K, 30177 kPa	569.95 kg/m3
400.5 K, 30206 kPa	570.64 kg/m3
400.5 K, 32686 kPa	602.4 kg/m3
400.5 K, 32712 kPa	602.99 kg/m3
400.5 K, 35192 kPa	631.01 kg/m3
400.5 K, 35205 kPa	631.44 kg/m3
